We go through 22 compounds from US10174023B2, “Heterocyclic-imidazole compounds, pharmaceutical compositions thereof, preparation method therefor and use thereof” (SHANGHAI HUILUN LIFE SCIENCE & TECHNOLOGY CO., LTD, priority 2015, dated 2019).

pIC50: −log10 of the molar value. Like-named read-outs stand apart in the source and are kept apart here. Some results are limits rather than exact numbers.

The test system of one assay is MDA-MB-436 cells. Kind of assay: Cell proliferation inhibition assay (CellTiter-Glo, 120 hrs). In kind it is cell-based, human. The settings on record: 120 hrs incubation, read-out: ED50 (MDA-MB-436); for pIC50: Homo sapiens. As for the experimental part:
Example 2. Cell Proliferation Inhibition Assay
The proliferation inhibitory activity of the compound of the present invention on the breast cancer cell line MDA-MB-436 of triple negative phenotype was tested in vitro.
1. Tumor cell line MDA-MB-436 supplied from HD Biosciences (Shanghai) Co., Ltd., and passed the Mycoplasma detection.
7. CellTiter-Glo Luminescent Cell Viability Assay, Promega, Catalog #: G7571.
Formulation of Compound Solutions
1. Each test compound was formulated into a 60 mM stock solution in DMSO, packaged, and stored in a freezer at −80°. The stock solution of each test compound was serially diluted in DMSO to give solutions at various concentration gradients, including 6 mM, 2 mM, 0.6 mM, 0.2 mM, 60 μM, and 20 μM.
2. Just before experiment, the formulated solution at various concentration gradients of each test compound was aseptically 100-fold diluted in the complete cell culture medium. In this case, the concentration gradients of the test compound included 60 μM, 20 μM, 6 μM, 2 μM, 0.6 μM, and 0.2 μM. These were 2× compound solutions, and could be used to treat the cells.
3. The stock solution of Compounds (1) to (21) and the control compound AZD2281 was serially diluted in DMSO to give solutions at various concentration gradients, including 20 μM, 2 μM, 0.2 μM, 0.02 μM, 0.002 μM, and 0.0002 μM. Before experiment, the formulated solution at various concentration gradients of each test compound was aseptically 100-fold diluted in the complete cell culture medium. The concentration gradients of the positive compound included 200 nM, 20 nM, 2 nM, 0.2 nM, 0.02 nM, and 0.002 nM. These were 2× compound solutions, and could be used to treat the cells.
1. One day before treatment with the compounds, the cells were inoculated into a 96-well plate at a density of 8000 cells/50 μl/well.
2. On the following day, the formulated 2× compound solutions were added, in accordance with a compound arrangement pattern, to the plate in an amount of 50 μl/well.
3. The plate was gently agitaged, and incubated for 120 hrs in an incubator at 37° C.
4. After incubation, the formulated reagent was added to the plate following instruction of the CellTiter Glo reagent, fully mixed, and incubated for 10 min at room temperature in the dark.
5. The plate was analyzed on a plate reader, the chemiluminescence was read, and the data was recorded.
The reading of each well needs to be converted into cell viability. The cell viability can be calculated using the following formula: […]
The processed data was subjected to non-linear regression analysis by using the GraphPad Prism5 analysis software, to obtain a dose-response curve; and the median effective dose (ED50) of test compounds for the MDA-MB-436 cells was calculated.
Background: In ATP-based viability assays light output follows the ATP content of the culture.

Assay [1] has as its system Human breast cancer MDA-MB-436 cells. Kind of assay: Tumor inhibition in nude mice tumor model transplanted with human breast cancer MDA-MB-436 cells. In kind it is in vivo, BALB/cA-nude mice. The settings on record: MDA-MB-436 xenograft in nude mice, oral, 30 mg/kg, once a day, consecutive 14 days. As for the experimental part: (§1) Example 3. Test of Tumor Inhibition Effect of Compounds of the Present Invention in Mice The following experiments were conducted to evaluate and compare the effects of the present compound alone in mice tumor models transplanted with human breast cancer cell line MDA-MB-436, human breast cancer cell line MX-1 or human pancreatic cancer cell line CAPAN-1 in vivo.
(§2) Test Compound: Example Compound (4)
(§3) BALB/cA-nude mice, 6-7 weeks, female, available from Shanghai SLAC Laboratory Animal Co., Ltd. Certificate number: SCXK (Shanghai) 2012-0002. Breeding environment: SPF grade.
(§4) The Nude mice were subcutaneously inoculated with human breast cancer MDA-MB-436 cells, human breast cancer MX-1 cells or human pancreatic cancer CAPAN-1 cells. After the tumor grew to 100-200 mm^3, the animals were grouped at random (D0). The tumor volume was measured twice or thrice a week, the body weight of the mice was weighed, and the data was recorded. The tumor volume (V) is calculated by using a formula below: V=½×a×b^2 […]
(§5) in which a, and b denote the length and width. T/C(%)=(T−T0)/(C−C0)×100 in which T are C are the tumor volumes at the end of the experiment; and T0 and C0 are the tumor volumes at the beginning of the experiment.

Assay [2] concerns Human breast cancer MX-1 cells. Kind of assay: Tumor inhibition in nude mice tumor model transplanted with human breast cancer MX-1 cells. In kind it is in vivo, BALB/cA-nude mice. The settings on record: MX-1 xenograft in nude mice, oral, 50 mg/kg, once a day, consecutive 21 days. As for the experimental part: as §1, §2, §3, §4, §5
(In xenograft studies the graft and the host belong to different species.)

Assay [3] relates to Human pancreatic cancer CAPAN-1 cells. The assay is described as follows: Tumor inhibition in nude mice tumor model transplanted with human pancreatic cancer CAPAN-1 cells. In kind it is in vivo, BALB/cA-nude mice. The settings on record: CAPAN-1 xenograft in nude mice, oral, 50 mg/kg, once a day, consecutive 21 days. The protocol: as §1, §2, §3, §4, §5

As for `O=C(c1cccc(Cc2n[nH]c(=O)c3ccccc23)c1)N1CCN(c2ccc3[nH]c(C(F)(F)F)nc3n2)CC1` [Compound (12)], the IC50 with MDA-MB-436 cells is above 25 µM.

For `O=C(c1cc(Cc2n[nH]c(=O)c3ccccc23)ccc1C(F)(F)F)N1CCN(c2ccc3[nH]c(=O)[nH]c3n2)CC1` [Compound (17), 4-(3-(4-(2-oxo-2,3-dihydro-1H-imidazo[4,5-b]pyridin-5-yl)piperazine-1-carbonyl)-4-trifluoromethylbenzyl)phthalazin-1(2H)-one], the pIC50 in the assay on MDA-MB-436 cells was below 4.60.

Take `O=C(c1cc(Cc2n[nH]c(=O)c3ccccc23)ccc1F)N1CCN(c2ncc3[nH]cnc3n2)CC1` [Compound (8), 4-(3-(4-(7H-purin-2-yl)piperazine-1-carbonyl)-4-fluorobenzyl)phthalazin-1(2H)-one]: the pIC50 with MDA-MB-436 cells is 5.85.

On to `O=C(c1cc(Cc2n[nH]c(=O)c3ccccc23)ccc1F)N1CCN(c2ccc3[nH]c(C(F)(F)F)nc3n2)CC1` [Compound (3)], for which the IC50 in the assay on MDA-MB-436 cells is above 25 µM.

On to `O=C(c1cc(Cc2n[nH]c(=O)c3ccccc23)ccc1C(F)(F)F)N1CCN(c2ccc3[nH]nnc3n2)CC1` [Compound (16), 4-(3-(4-(1H-[1,2,3]triazolo[4,5-b]pyridin-5-yl)piperazine-1-carbonyl)-4-trifluoromethylbenzyl)phthalazin-1(2H)-one], for which the pIC50 with MDA-MB-436 cells was below 4.60.

Turning to `Cc1nc2nc(N3CCN(C(=O)c4cc(Cc5n[nH]c(=O)c6ccccc56)ccc4F)CC3)ccc2[nH]1` [Compound (2), 4-(4-fluoro-3-(4-(2-methyl-1H-imidazo[4,5-b]pyridin-5-yl)piperazine-1-carbonyl)benzyl)phthalazin-1(2H)-one], the pIC50 in the assay with MDA-MB-436 cells was below 4.60.

As to `COc1ccc(Cc2n[nH]c(=O)c3ccccc23)cc1C(=O)N1CCN(c2ccc3[nH]cnc3n2)CC1` [Compound (14), 4-(3-(4-(1H-imidazo[4,5-b]pyridin-5-yl)piperazine-1-carbonyl)-4-methoxybenzyl)phthalazin-1(2H)-one], in the assay with MDA-MB-436 cells, the pIC50 was 5.17.

Consider `COc1ccc(Cc2n[nH]c(=O)c3ccccc23)cc1C(=O)N1CCN(c2cc3nc[nH]c3cn2)CC1` [Compound (18), 4-(3-(4-(3H-imidazo[4,5-c]pyridin-6-yl)piperazine-1-carbonyl)-4-methoxybenzyl)phthalazin-1(2H)-one], for which the pIC50 in the assay with MDA-MB-436 cells was below 4.60.

On to `O=C(c1cc(Cc2n[nH]c(=O)c3ccccc23)ccc1C(F)(F)F)N1CCN(c2cc3nc[nH]c3cn2)CC1` [Compound (19), 4-(3-(4-(3H-imidazo[4,5-c]pyridin-6-yl)piperazine-1-carbonyl)-4-trifluoromethylbenzyl)phthalazin-1(2H)-one], for which the pIC50 in the assay on MDA-MB-436 cells is below 4.60.

Take `O=C(c1cc(Cc2n[nH]c(=O)c3ccccc23)ccc1F)N1CCN(c2ccc3[nH]c(=O)[nH]c3n2)CC1` [Compound (5), 4-(4-fluoro-3-(4-(2-oxo-2,3-dihydro-1H-imidazo[4,5-b]pyridin-5-yl)piperazine-1-carbonyl)benzyl)phthalazin-1(2H)-one]: the pIC50 in the assay on MDA-MB-436 cells is below 4.60.

Turning to `Cc1nc2nc(N3CCN(C(=O)c4cccc(Cc5n[nH]c(=O)c6ccccc56)c4)CC3)ccc2[nH]1` [Compound (11), 4-(3-(4-(2-methyl-1H-imidazo[4,5-b]pyridin-5-yl)piperazine-1-carbonyl)benzyl)phthalazin-1(2H)-one], the pIC50 with MDA-MB-436 cells is below 4.60.

Consider `O=C(c1cc(Cc2n[nH]c(=O)c3ccccc23)ccc1C(F)(F)F)N1CCN(c2ccc3[nH]cnc3n2)CC1` [Compound (15), 4-(3-(4-(1H-imidazo[4,5-b]pyridin-5-yl)piperazine-1-carbonyl)-4-trifluoromethylbenzyl)phthalazin-1(2H)-one], for which the pIC50 in the assay on MDA-MB-436 cells was 4.64.

In the case of `O=C(c1cc(Cc2n[nH]c(=O)c3ccccc23)ccc1F)N1CCN(c2cnc3[nH]cnc3c2)CC1` [Compound (7), 4-(3-(4-(3H-imidazo[4,5-b]pyridin-6-yl)piperazine-1-carbonyl)-4-fluorobenzyl)phthalazin-1(2H)-one], the pIC50 in the assay on MDA-MB-436 cells is below 4.60.

With `COc1ccc(Cc2n[nH]c(=O)c3ccccc23)cc1C(=O)N1CCN(c2cnc3[nH]cnc3c2)CC1` [Compound (21), 4-(3-(4-(3H-imidazo[4,5-b]pyridin-6-yl)piperazine-1-carbonyl)-4-methoxybenzyl)phthalazin-1(2H)-one], the pIC50 in the assay on MDA-MB-436 cells is below 4.60.

As for `O=C(c1cc(Cc2n[nH]c(=O)c3ccccc23)ccc1F)N1CCN(c2ccc3[nH]nnc3n2)CC1` [Compound (1), 4-(3-(4-(1H-[1,2,3]triazolo[4,5-b]pyridin-5-yl)piperazine-1-carbonyl)-4-fluorobenzyl)phthalazin-1(2H)-one], the pIC50 with MDA-MB-436 cells was below 4.60.

On to `O=C(c1cccc(Cc2n[nH]c(=O)c3ccccc23)c1)N1CCN(c2ccc3[nH]nnc3n2)CC1` [Compound (10), 4-(3-(4-(1H-[1,2,3]triazolo[4,5-b]pyridin-5-yl)piperazine-1-carbonyl)-benzyl)phthalazin-1 (2H)-one], for which the pIC50 with MDA-MB-436 cells is below 4.60.

Regarding `O=C(c1cc(Cc2n[nH]c(=O)c3ccccc23)ccc1F)N1CCN(c2ccc3[nH]cnc3n2)CC1` [Compound (4), 4-(3-(4-(1H-imidazo[4,5-b]pyridin-5-yl)piperazine-1-carbonyl)-4-fluorobenzyl)phthalazin-1(2H)-one], in the assay with MDA-MB-436 cells, the pIC50 was 6.15. Also, the results for the Tumor inhibition in assay [1], in assay [2] and in assay [3] were 191%, 193% and 128%, respectively.

In the case of `O=C(c1cc(Cc2n[nH]c(=O)c3ccccc23)ccc1F)N1CCN(c2cc3nc[nH]c3cn2)CC1` [Compound (6), 4-(3-(4-(3H-imidazo[4,5-c]pyridin-6-yl)piperazine-1-carbonyl)-4-fluorobenzyl)phthalazin-1(2H)-one], the pIC50 in the assay with MDA-MB-436 cells was 4.74.

Take `O=C(c1cc(Cc2n[nH]c(=O)c3ccccc23)ccc1F)N1CCN(C(=O)C2CC2)CC1` [AZD2281, reference compound]: the pIC50 with MDA-MB-436 cells is below 4.60. In addition, the Tumor inhibition came out at 83% in assay [1], 13% in assay [2] and 57% in assay [3].

As to `O=C(c1cc(Cc2n[nH]c(=O)c3ccccc23)ccc1C(F)(F)F)N1CCN(c2cnc3[nH]cnc3c2)CC1` [Compound (20), 4-(3-(4-(3H-imidazo[4,5-b]pyridin-6-yl)piperazine-1-carbonyl)-4-trifluoromethylbenzyl)phthalazin-1(2H)-one], the pIC50 in the assay with MDA-MB-436 cells is below 4.60.

As to `O=C(c1cccc(Cc2n[nH]c(=O)c3ccccc23)c1)N1CCN(c2ccc3[nH]cnc3n2)CC1` [Compound (13), 4-(3-(4-(1H-imidazo[4,5-b]pyridin-5-yl)piperazine-1-carbonyl)benzyl)phthalazin-1(2H)-one], the pIC50 with MDA-MB-436 cells is 6.15.

For the compound `O=C(c1cccc(Cc2n[nH]c(=O)c3ccccc23)c1)N1CCN(c2ccc3[nH]c(=O)[nH]c3n2)CC1` [Compound (9)], in the assay with MDA-MB-436 cells, the pIC50 was below 4.60.
